# From PubChem BioAssay (NCI)
#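 Compound exposure: 48 hours, 5 concentrations, 96-well plates. Here, GI50 denotes the concentration required for 50% inhibition of growth. TGI denotes the concentration required for complete inhibition of growth.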
# Key:
# Test in all cases: DTP human tumour cell line panel, 48 h
# TK-10 renal = test system: TK-10 renal
# M14 melanoma = test system: M14 melanoma
# CCRF-CEM leukemia = test system: CCRF-CEM leukemia
# NCI-H23 lung = test system: NCI-H23 lung
# UO-31 renal = test system: UO-31 renal
# SW-620 colon = test system: SW-620 colon
# SF-539 CNS = test system: SF-539 CNS
# LOX IMVI melanoma = test system: LOX IMVI melanoma
SMILES,GI50 (TK-10 renal),TGI (TK-10 renal),GI50 (M14 melanoma),TGI (M14 melanoma),GI50 (CCRF-CEM leukemia),TGI (CCRF-CEM leukemia),GI50 (NCI-H23 lung),TGI (NCI-H23 lung),GI50 (UO-31 renal),TGI (UO-31 renal),GI50 (SW-620 colon),TGI (SW-620 colon),GI50 (SF-539 CNS),TGI (SF-539 CNS),GI50 (LOX IMVI melanoma),TGI (LOX IMVI melanoma)
COc1ccc(C2(Cl)c3ccccc3N(c3ccccc3)c3ccccc32)cc1,0.516 µM,3.21 µM,0.224 µM,1.38 µM,1.99 µM,13.8 µM,0.329 µM,1.81 µM,0.846 µM,10.8 µM,0.37 µM,1.69 µM,0.519 µM,1.95 µM,0.282 µM,1.32 µM
C[C@@H](Oc1cc(-n2cnc3ccc(OC4CCN(C)CC4)cc32)sc1C(N)=O)c1ccccc1Cl,1.79 µM,5.75 µM,,,0.00953 µM,4.19 µM,0.0183 µM,5.18 µM,1.74 µM,5.95 µM,0.00875 µM,3.48 µM,0.0564 µM,2.29 µM,0.0146 µM,3.69 µM
O=C(O)CCNCC(=O)O,,> 100 µM,,> 100 µM,,> 100 µM,,> 100 µM,,> 100 µM,,> 100 µM,,> 100 µM,,> 100 µM
CCc1ccc(Oc2c(-c3ccc(OCc4ccc(Cl)cc4)cc3O)n[nH]c2C(F)(F)F)cc1,2 µM,4.75 µM,1.88 µM,3.71 µM,2.92 µM,7.22 µM,1.67 µM,3.35 µM,1.68 µM,3.89 µM,2.05 µM,4.45 µM,1.96 µM,4.41 µM,1.63 µM,3.01 µM
O=C(CSc1nc2c(n1Nc1ccccc1)-c1ccccc1SC2)Nc1nc(-c2ccc(Cl)cc2)cs1,22.9 µM,58.9 µM,> 100 µM,> 100 µM,,,6.48 µM,97.1 µM,> 100 µM,> 100 µM,,,25.8 µM,> 100 µM,> 100 µM,> 100 µM
O=C1Nc2c(ccc(Cl)c2Cl)/C1=C/c1cc(Br)c(O)c(Br)c1,12 µM,> 100 µM,3.14 µM,> 100 µM,3.95 µM,> 65.4 µM,4.91 µM,> 65.7 µM,14.5 µM,> 49.7 µM,4.67 µM,> 100 µM,3.21 µM,14.8 µM,6.94 µM,63.6 µM
Clc1c(Cl)[n+](Cc2ccc3ccccc3c2)cn1Cc1ccc2ccccc2c1,1.58 µM,3.11 µM,1.21 µM,2.8 µM,2.89 µM,7.06 µM,1.35 µM,3.15 µM,1.72 µM,4.56 µM,1.47 µM,3 µM,1.57 µM,2.98 µM,1.26 µM,2.52 µM
O=C(CN(/C=C/C(=O)C(F)(F)F)c1ccc(Cl)cc1)c1ccc(Cl)cc1,4.78 µM,19.3 µM,,,5.11 µM,24.4 µM,6.3 µM,20.9 µM,12 µM,24.8 µM,10.2 µM,23.7 µM,19.2 µM,36.9 µM,4.61 µM,20.9 µM
O=C1NC(=C(Cl)Cl)/C(=N/S(=O)(=O)N2CCCCC2)N1,4.82 µM,> 100 µM,2.06 µM,4.54 µM,2.19 µM,4.92 µM,2.2 µM,5 µM,2.87 µM,12.4 µM,2.11 µM,4.17 µM,2.2 µM,5.55 µM,1.86 µM,3.58 µM
COc1ccc2c(c1)C(=O)c1c-2n(CCCN(C)C)c(=O)c2ccccc12,0.722 µM,9.32 µM,0.483 µM,1.87 µM,0.077 µM,0.629 µM,0.318 µM,1.31 µM,0.167 µM,0.811 µM,0.16 µM,3.93 µM,0.282 µM,0.979 µM,0.162 µM,1.01 µM
COc1cc(/C=C2\CC3C4CC=C5C[C@@H](OC(C)=O)CC[C@]5(C)C4CC[C@]3(C)C2=O)ccc1OCCN1CCCCC1 (stereo partly drawn),3.4 µM,12.3 µM,2.09 µM,3.79 µM,1.25 µM,3.35 µM,10.4 µM,22.2 µM,1.98 µM,4.99 µM,3.18 µM,7.32 µM,2.02 µM,3.82 µM,1.26 µM,3.31 µM
NS(=O)(=O)OC[C@H]1C[C@@H](Nc2ccnc3cc(-c4cccc(SC(F)(F)F)c4)nn23)[C@H](O)[C@@H]1O,0.126 µM,0.336 µM,0.0429 µM,0.278 µM,< 0.0181 µM,13.2 µM,0.0338 µM,0.13 µM,0.208 µM,0.369 µM,0.0422 µM,1.37 µM,0.0143 µM,0.037 µM,,
CCOC(=O)Cc1c(C)c2cc(C(=O)c3ccccc3)c(O)cc2oc1=O,,> 100 µM,,> 100 µM,,> 100 µM,,46.6 µM,,,,> 100 µM,,58.3 µM,,> 100 µM
COc1ccc(Nc2nc3cc(N)cc(N)c3nc2-c2ccccc2)cc1,16.5 µM,42.5 µM,17.6 µM,36.3 µM,12 µM,> 100 µM,12.5 µM,25.3 µM,16.6 µM,34.2 µM,22.5 µM,37 µM,,,16.1 µM,29.8 µM
COc1ccccc1Nc1cc(O)c2c(=O)cc(-c3ccccc3)oc2c1,10.4 µM,28.6 µM,,,3.57 µM,> 100 µM,4.22 µM,52.6 µM,3.57 µM,21.5 µM,2.5 µM,> 100 µM,2.73 µM,10.4 µM,3.41 µM,> 100 µM
CC1Cc2c(Cl)ncnc2N(C)c2ccc(Cl)cc21 (stereo not drawn),0.315 µM,13.2 µM,0.312 µM,29.7 µM,0.51 µM,> 100 µM,0.316 µM,2.2 µM,0.337 µM,> 100 µM,0.335 µM,4.74 µM,0.513 µM,> 100 µM,,
